Measured values published in publication PMC11945486, “TAS1R2/TAS1R3 Single-Nucleotide Polymorphisms Affect Sweet Taste Receptor Activation by Sweeteners: The SWEET Project” (Nutrients, 2025).
No end group written: not given here.

T1: human TAS1R2-WT/TAS1R3-L95P (Homo sapiens, UniProt Q7RTX0+Q8TE23, L95P)
T1 construct: expressed in transfected cells; host or cells: HEK293T stably expressing Gα16gust44
T1 sequence (Q8TE23 20-839): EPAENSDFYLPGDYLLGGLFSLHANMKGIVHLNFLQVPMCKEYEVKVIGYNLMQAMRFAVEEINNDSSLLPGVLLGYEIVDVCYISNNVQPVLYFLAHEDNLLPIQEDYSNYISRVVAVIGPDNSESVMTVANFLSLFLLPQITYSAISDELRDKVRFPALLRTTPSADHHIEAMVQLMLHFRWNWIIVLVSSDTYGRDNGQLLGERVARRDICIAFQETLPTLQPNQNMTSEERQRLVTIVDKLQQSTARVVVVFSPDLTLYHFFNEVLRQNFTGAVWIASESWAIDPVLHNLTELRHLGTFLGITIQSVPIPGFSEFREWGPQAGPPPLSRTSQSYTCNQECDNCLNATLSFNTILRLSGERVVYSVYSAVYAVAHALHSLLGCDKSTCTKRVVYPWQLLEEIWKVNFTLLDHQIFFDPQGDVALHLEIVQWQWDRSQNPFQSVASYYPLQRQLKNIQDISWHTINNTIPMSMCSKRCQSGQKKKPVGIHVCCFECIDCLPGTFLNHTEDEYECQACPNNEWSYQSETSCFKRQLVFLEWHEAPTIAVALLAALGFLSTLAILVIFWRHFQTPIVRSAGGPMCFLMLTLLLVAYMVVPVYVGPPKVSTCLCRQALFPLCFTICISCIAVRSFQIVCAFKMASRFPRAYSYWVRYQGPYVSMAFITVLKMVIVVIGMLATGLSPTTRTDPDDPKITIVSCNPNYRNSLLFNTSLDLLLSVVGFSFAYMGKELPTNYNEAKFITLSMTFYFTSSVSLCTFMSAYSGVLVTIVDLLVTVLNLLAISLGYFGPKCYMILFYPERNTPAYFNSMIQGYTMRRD
T1 sequence (Q7RTX0 21-852 L95P): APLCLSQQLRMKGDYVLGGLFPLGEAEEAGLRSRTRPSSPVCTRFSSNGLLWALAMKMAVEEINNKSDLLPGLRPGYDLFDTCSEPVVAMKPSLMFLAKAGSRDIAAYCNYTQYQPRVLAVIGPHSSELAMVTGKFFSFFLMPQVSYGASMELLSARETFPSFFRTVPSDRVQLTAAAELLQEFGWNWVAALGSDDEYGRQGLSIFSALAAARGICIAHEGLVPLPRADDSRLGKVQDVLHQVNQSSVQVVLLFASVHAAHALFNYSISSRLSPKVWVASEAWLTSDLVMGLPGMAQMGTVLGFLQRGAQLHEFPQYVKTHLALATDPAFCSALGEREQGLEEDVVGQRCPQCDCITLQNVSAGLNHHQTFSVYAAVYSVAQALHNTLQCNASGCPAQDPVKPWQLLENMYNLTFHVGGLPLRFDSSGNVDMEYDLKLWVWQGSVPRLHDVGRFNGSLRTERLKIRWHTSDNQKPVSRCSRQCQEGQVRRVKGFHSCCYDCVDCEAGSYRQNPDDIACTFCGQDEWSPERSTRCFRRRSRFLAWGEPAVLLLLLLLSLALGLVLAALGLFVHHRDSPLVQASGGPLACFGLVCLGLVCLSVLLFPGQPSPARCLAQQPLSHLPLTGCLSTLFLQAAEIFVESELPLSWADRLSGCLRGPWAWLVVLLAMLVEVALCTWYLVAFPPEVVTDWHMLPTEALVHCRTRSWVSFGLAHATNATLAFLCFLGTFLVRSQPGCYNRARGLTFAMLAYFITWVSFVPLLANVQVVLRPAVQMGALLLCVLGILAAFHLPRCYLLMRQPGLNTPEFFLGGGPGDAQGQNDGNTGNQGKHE

B1: thaumatin (protein)
chain: ATFEIVNRCSYTVWAAASKGDAALDAGGRQLNSGESWTINVEPGTKGGKIWARTDCYFDDSGSGICKTGDCGGLLRCKRFGRPPTTLAEFSLNQYGKDYIDISNIKGFNVPMDFSPTTRGCRGVRCAADIVGQCPAKLKAPGGGCNDACTVFQTSEYCCTTGKCGPTEYSRFFKRLCPDAFSYVLDKPTTVTCPGSSNYRVTFCPTA
modifications: Eight disulfides
notes: sweet-tasting plant protein, E957

Molecular target: T1, human TAS1R2-WT/TAS1R3-L95P
Assay: Calcium mobilisation assay, TAS1R2-WT with TAS1R3 variant L95P
Type: cell-based
Conditions: for Max ΔF/F0: maximal signal amplitude; for Max ΔF/F0 / EC50: "-": no activation
Source text: The coding sequences for TAS1R2 and TAS1R3 were commercially synthesised, and the human codon was optimised for expression in human cells. The coding sequences of human TAS1R2 and TAS1R3 were subcloned and inserted into the mammalian expression vectors pcDNA6/myc-HisA and pcDNA4/myc-HisA (Invitrogen; Thermo Fisher Scientific; Illkirch, France) between the EcoRI and NotI restriction sites, generating the plasmids pcDNA6-TAS1R2 and pcDNA4-TAS1R3, respectively. To increase protein expression in mammalian cells, an upstream start codon was used, which was a sequence called MAX, corresponding to the QBI SP163 element also described in pcDNA4-HisMax (Invitrogen; Thermo Fisher Scientific; Illkirch, France). To measure the expression level of the receptor by immunohistochemistry, we used the FLAG sequence ([…]) in the C-terminal position, which encodes the FLAG tag epitope. SNP variants of TAS1R2 and TAS1R3 were constructed based on […], respectively, using site-directed mutagenesis (Genewiz; Leipzig, Germany).
The HEK293T cells were kindly provided by Jay P. Slack (Givaudan Flavors Corporation; Cincinnati, OH, USA). HEK293T cells stably transfected with Gα16gust44 [43, 67] were seeded in poly-D-lysine-coated clear-bottom black 96-well plates (0.35 × 10^5 cells/well) in high-glucose DMEM supplemented with 2 mM GlutaMAX, 10% dialysed foetal bovine serum with penicillin/streptomycin and G418 (400 μg/mL) at 37 °C and 6.3% CO2 in a humidified atmosphere as previously reported. […] As a negative control, HEK293T cells were mock-transfected with the empty expression vector. After a further 24 h of incubation, the HEK293T cells were washed with C1 buffer (130 mM NaCl, 5 mM KCl, 10 mM HEPES pH 7.4 and 2 mM CaCl2). The 96-well plates containing the cells were then stimulated with sweet-tasting compounds. […] Different concentration ranges were tested depending on the sweet compound injected. The Ca^2+ changes were expressed as fractional changes in fluorescent light intensity: ΔF/F = (F − F0)/F0, where F was the fluorescent light intensity at each point, and F0 was the value of emitted fluorescent light prior to stimulus application. To calculate dose–response relationships, the changes in fluorescence upon stimulus application were averaged, mock-subtracted and baseline-corrected. The dose–response data obtained were adjusted using a 4-parameter logistic equation. The half-maximal effective concentrations (EC50 values) and maximal signal amplitudes were calculated using SigmaPlot software (version 15.0) (Systat Software; San Jose, CA, USA).
For in vitro calcium mobilisation assay performed on hTAS1R2-SNPs, hTAS1R3-SNPs and mTAS1R3-I60T, 6 to 7 concentrations were tested for each sweet compound, plus buffer alone. All concentration–receptor combinations were measured in duplicate, and each experiment was repeated at least 4 times (8 wells/concentration). Results were expressed for each concentration as ΔF/F mean ± SEM and represented as dose–response curves.

Molecule | R1 = Variant EC50/WT EC50 | Max ΔF/F0 | EC50
C[C@H](CC[C@@H](O[C@@H]1O[C@H](CO[C@@H]2O[C@H](CO)[C@@H](O)[C@H](O)[C@H]2O)[C@@H](O)[C@H](O)[C@H]1O[C@@H]1O[C@H](CO)[C@@H](O)[C@H](O)[C@H]1O)C(C)(C)O)[C@H]1CC[C@@]2(C)[C@@H]3CC=C4[C@@H](CC[C@H](O[C@@H]5O[C@H](CO[C@@H]6O[C@H](CO)[C@@H](O)[C@H](O)[C@H]6O)[C@@H](O)[C@H](O)[C@H]5O)C4(C)C)[C@]3(C)[C@H](O)C[C@]12C [Mogroside V, mogroside V] | 8.4 | 0.08 | 
C=C(C)[C@@H]1CC=C(/C=N/O)CC1 [Perillartine, perillartine] | 2.5 | 0.14 ± 0.02 | 33.9 ± 2.8 µM
brazzein (QDKCKKVYENYPVSKCQLANQCNYDCKLDKHARSGECFYDEKRNLQCICDYCEY; ends and bridges not checked; cysteine pairing not given here; UniProt P56552 1-54, looked up) [sweet-tasting protein obtained by recombinant production using the yeast Pichia pastoris] | 19.3 | 0.10 ± 0.05 | 
thaumatin | 2.6 | 0.89 ± 0.01 | 
B1 |  |  | 27.4 ± 5.8 µM
